24 molecules from ChEMBL document CHEMBL4190398, “Detailed Exploration around 4-Aminoquinolines Chemical Space to Navigate the Lysine Methyltransferase G9a and DNA Methyltransferase Biological Spaces” (J Med Chem, 2018) can be followed below.

One data set has as its system THLE-2. Kind of data set: Cytotoxicity against human THLE2 cells assessed as reduction in cell viability after 72 hrs by MTS assay. In kind it is cell-based. The following applies: thle-2, 72 h.
Data set [1] is described as follows: Metabolic stability in human liver microsomes assessed as parent compound remaining at 1 uM preincubated for 10 mins followed by NADP addition measured after 20 mins by LC-MS/MS analysis. In kind it is ADME, microsome. The following applies: read-out: Stability.
Data set [2] in a line: Metabolic stability in mouse liver microsomes assessed as parent compound remaining at 1 uM preincubated for 10 mins followed by NADP addition measured after 20 mins by LC-MS/MS analysis. In kind it is ADME, microsome. The following applies: read-out: Stability.

In the case of `CCc1ccc(-c2cc(NC3CCN(C)CC3)c3cc(OC)c(OCCCN4CCCC4)cc3n2)o1`, in the data set with THLE-2, the LC50 was determined as 2320 nM. Still for that read-out and setting: under `COc1cc2c(NC3CCN(C)CC3)cc(-c3ccc(C)o3)nc2cc1OCCCN1CCCC1` stands 1780 nM; under `COc1cc2c(NC3CCN(C)CC3)cc(-c3ccc(C)o3)nc2cc1OCC1CCN(C)CC1`, 1030 nM. With `COc1cc2c(NCC3CCN(C(C)C)CC3)cc(-c3ccc(C)o3)nc2cc1OCCCN1CCCC1`, the LC50 in the data set with THLE-2 is on record as 777 nM. Same read-out and setting: under `CCc1ccc(-c2cc(NC3CCC34CCN(C)CC4)c3cc(OC)c(OCCCN4CCCC4)cc3n2)o1` (stereo not drawn) stands 517 nM.

`COc1cc2c(NC3CC4(CCN(C(C)C)CC4)C3)cc(-c3ccc(C)o3)nc2cc1OCCCN1CCCC1`: the 50% lethal concentration (LC50) with THLE-2 was found to be 841 nM. Same read-out and setting: with `CCc1ccc(-c2cc(NC3CCN(C)CC3)c3cc(OC)c(OCCCN4CCC5(CC5)C4)cc3n2)o1` the figure was 2040 nM. Take `COc1cc2c(NC3CC4CCC(C3)N4C)cc(-c3ccc(C)o3)nc2cc1OCCCN1CCCC1` (stereo not drawn): the figures for the remaining at 20 min, 1 µM in data set [1] and in data set [2] were 60.3% and 43.9%, respectively. Also, the LC50 with THLE-2 stood at 4150 nM. Taken in the same sequence, the figures for `COc1cc2c(NC3CC4(CCN(C)CC4)C3)cc(-c3ccc(C)o3)nc2cc1OCCCN1CCCC1` were 68.6%, 40.6% and 992 nM. In the case of `COc1cc2c(NC3C4CCC3CN(C)C4)cc(-c3ccc(C)o3)nc2cc1OCCCN1CCCC1` (stereo not drawn), in the data set with THLE-2, the LC50 was 527 nM. Same read-out and setting: under `CCc1ccc(-c2cc(NC3CCN(C)CC3)c3cc(OC)c(OCCCN(C)C)cc3n2)o1` stands 3520 nM; under `COc1cc2c(NCC3CCN(C)CC3)cc(-c3ccc(C)o3)nc2cc1OCCCN1CCCC1`, 1300 nM; under `COc1cc2c(NC3CCN(C)CC3)cc(-c3ccc(C)o3)nc2cc1OCC1CCNCC1`, 24800 nM. Consider `COc1cc2c(NC3CCC34CCN(C)CC4)cc(-c3ccc(C)o3)nc2cc1OCCCN1CCCC1` (stereo not drawn), for which the remaining at 20 min, 1 µM in data set [1] amounted to 80.4%; in data set [2] it was 53.3%. Besides, the LC50 with THLE-2 is on record as 731 nM. For `CCc1ccc(-c2cc(NC3CCN(C)CC3)c3cc(OC)c(OCCCN4CCCCC4)cc3n2)o1`, the LC50 in the data set on THLE-2 worked out at 1380 nM. `CCc1ccc(-c2cc(NCC3C4CCC3CN(C)C4)c3cc(OC)c(OCCCN4CCCC4)cc3n2)o1` (stereo not drawn): in the data set with THLE-2, the median lethal concentration (LC50) is reported as less than 164 nM. Still for that read-out and setting: under `COc1cc2c(NC3CCC34CCN(C)C4)cc(-c3ccc(C)o3)nc2cc1OCCCN1CCCC1` (stereo not drawn) stands 1980 nM. Regarding `CCc1ccc(-c2cc(NCC3CCN(C)CC3)c3cc(OC)c(OCCCN4CCCC4)cc3n2)o1`, the figures for the remaining at 20 min, 1 µM in data set [1] and in data set [2] were 69% and 59.1%, respectively. Also, the LC50 with THLE-2 is listed as 954 nM. `COc1cc2c(NC3CC4(CCN(C)CC4)C3)cc(-c3ccc(C)o3)nc2cc1OCC1CCN(C)CC1`: the LC50 in the data set with THLE-2 is listed as 2530 nM. `COc1cc2c(NC3CCN(C)CC3)cc(-c3ccc(C)o3)nc2cc1OC1CC2(C1)CN(C)C2`: the remaining at 20 min, 1 µM in data set [1] is 49.8%; in data set [2], 43.3%. The LC50 in the data set with THLE-2 was 698 nM. Consider `Cc1ccc(-c2cc(NC3CCN(C)CC3)c3cc(Cl)c(OCCCN4CCCC4)cc3n2)o1`, for which the remaining at 20 min, 1 µM in data set [1] and in data set [2] was 81.7% throughout. Moreover, in the data set with THLE-2, the LC50 came to 2310 nM. `COc1cc2c(NC3CC4(CCN(C)C4)C3)cc(-c3ccc(C)o3)nc2cc1OCCCN1CCCC1` (stereo not drawn): the LC50 in the data set on THLE-2 is reported as 8380 nM. On the same count and under the same terms, under `COc1cc2c(NC3CC4(CCN(C(C)C)CC4)C3)cc(-c3ccc(C)o3)nc2cc1OC1CC2(C1)CN(C)C2` (stereo not drawn) stands 4650 nM. Regarding `COc1cc2c(NC3CCN(C)C(=O)C3)cc(-c3ccc(C)o3)nc2cc1OCCCN1CCCC1` (stereo not drawn), the remaining at 20 min, 1 µM in data set [1] came to 82.7%; in data set [2] it was 71.9%. Besides, in the data set on THLE-2, the LC50 amounted to 7950 nM.
